This is an account of results in patent US20260273073A1, “TRANSDUCIN BETA-LIKE PROTEIN 1 DEGRADERS” (Ohio State Innovation Foundation, priority 2023, published 2026).

Each structure is given as a SMILES string. Where two headings read alike, the source gives them in different places.

What all share (format): cell-based
One assay relates to Riva. As to the kind of experiment: PROTAC compounds evaluated against lymphoma cell line Riva. As for the experimental part:
(§1) A library of PROTAC compounds was prepared according to the sequences depicted in FIGS. 1 and 2. These compounds were evaluated against three different lymphoma cell lines (Riva, Pfeiffer, and Granta-519): […]

Another assay has as its system Pfeiffer. Briefly: PROTAC compounds evaluated against lymphoma cell line Pfeiffer. As for the experimental part:
as §1

Another assay deals with Granta-519. Briefly: PROTAC compounds evaluated against lymphoma cell line Granta-519. Particulars: Granta-519 lymphoma cell line. As for the experimental part: as §1

For orientation: IC50 means the concentration that gives 50% inhibition. A high value points to a need for much substance.

As to `CC1CC(C)CN(S(=O)(=O)c2ccc3c(c2)C(=NO)c2cc(S(=O)(=O)N4CCN(C(=O)CCCCCCNc5cccc6c5C(=O)N(C5CCC(=O)NC5=O)C6=O)CC4)ccc2C3=NO)C1` (stereo not drawn) [RY-3-108], the IC50 in the assay on Riva was found to be 605 nM; with Pfeiffer it was 343 nM; with Granta-519 it was 439 nM.
Consider `CC1CC(C)CN(S(=O)(=O)c2ccc3c(c2)C(=NO)c2cc(S(=O)(=O)N4CCN(C(=O)CCOCCOCCNc5cccc6c5C(=O)N(C5CCC(=O)NC5=O)C6=O)CC4)ccc2C3=NO)C1` (stereo not drawn) [RY-3-113], for which the IC50 in the assay with Riva, in the assay on Pfeiffer and in the assay on Granta-519 was over 20000 nM each time.
As for `CC1CC(C)CN(S(=O)(=O)c2ccc3c(c2)C(=NO)c2cc(S(=O)(=O)N4CCN(C(=O)CCNc5cccc6c5C(=O)N(C5CCC(=O)NC5=O)C6=O)CC4)ccc2C3=NO)C1` (stereo not drawn) [RY-3-119], the results for the IC50 in the assay with Riva, in the assay with Pfeiffer and with Granta-519 were 797 nM, 564 nM and 399 nM, respectively.
On the same counts, the results for `CC1CC(C)CN(S(=O)(=O)c2ccc3c(c2)C(=NO)c2cc(S(=O)(=O)N4CCN(C(=O)CCCCNc5cccc6c5C(=O)N(C5CCC(=O)NC5=O)C6=O)CC4)ccc2C3=NO)C1` (stereo not drawn) [RY-3-120] are 560 nM, 647 nM and 496 nM.
For the compound `CC1CC(C)CN(S(=O)(=O)c2ccc3c(c2)C(=NO)c2cc(S(=O)(=O)N4CCN(C(=O)CCCCCCCCCCNc5cccc6c5C(=O)N(C5CCC(=O)NC5=O)C6=O)CC4)ccc2C3=NO)C1` (stereo not drawn) [RY-3-121], the IC50 was 1160 nM in the assay on Riva, 2500 nM with Pfeiffer and 1160 nM in the assay with Granta-519.
As for `CC1CC(C)CN(S(=O)(=O)c2ccc3c(c2)C(=NO)c2cc(S(=O)(=O)N4CCN(C(=O)CCOCCNc5cccc6c5C(=O)N(C5CCC(=O)NC5=O)C6=O)CC4)ccc2C3=NO)C1` (stereo not drawn) [RY-3-122], the half-maximal inhibitory concentration (IC50) with Riva, with Pfeiffer and with Granta-519 was over 20000 nM each time.
Take `CC1CC(C)CN(S(=O)(=O)c2ccc3c(c2)C(=NO)c2cc(S(=O)(=O)N4CCN(C(=O)CCOCCOCCOCCNc5cccc6c5C(=O)N(C5CCC(=O)NC5=O)C6=O)CC4)ccc2C3=NO)C1` (stereo not drawn) [RY-3-123]: the half-maximal inhibitory concentration (IC50) in the assay with Riva, in the assay on Pfeiffer and in the assay on Granta-519 was over 20000 nM each time.
For the compound `CC1CC(C)CN(S(=O)(=O)c2ccc3c(c2)C(=NO)c2cc(S(=O)(=O)N4CC(C)CC(C)C4)ccc2C3=NOCCCNC(=O)CCCCCCCCCCNc2cccc3c2C(=O)N(C2CCC(=O)NC2=O)C3=O)C1` (stereo not drawn) [RY-3-124], the IC50 with Riva, in the assay with Pfeiffer and in the assay with Granta-519 was over 20000 nM in each case.
As to `CC1CC(C)CN(S(=O)(=O)c2ccc3c(c2)C(=NO)c2cc(S(=O)(=O)N4CC(C)CC(C)C4)ccc2C3=NOCCCNC(=O)CCNc2cccc3c2C(=O)N(C2CCC(=O)NC2=O)C3=O)C1` (stereo not drawn) [RY-3-127], the IC50 with Riva came out at 651 nM; with Pfeiffer it was 189 nM; in the assay on Granta-519, 323 nM.
With `CC1CC(C)CN(S(=O)(=O)c2ccc3c(c2)C(=NO)c2cc(S(=O)(=O)N4CC(C)CC(C)C4)ccc2C3=NOCCCNC(=O)CCCCNc2cccc3c2C(=O)N(C2CCC(=O)NC2=O)C3=O)C1` (stereo not drawn) [RY-3-128], the IC50 was 795 nM in the assay on Riva, 398 nM in the assay on Pfeiffer and 523 nM with Granta-519.
Take `CC1CC(C)CN(S(=O)(=O)c2ccc3c(c2)C(=NO)c2cc(S(=O)(=O)N4CC(C)CC(C)C4)ccc2C3=NOCCCNC(=O)CCOCCNc2cccc3c2C(=O)N(C2CCC(=O)NC2=O)C3=O)C1` (stereo not drawn) [RY-3-129]: the IC50 in the assay with Riva was 1350 nM; in the assay on Pfeiffer, 554 nM; in the assay with Granta-519 it was 1040 nM.
For `CC1CC(C)CN(S(=O)(=O)c2ccc3c(c2)C(=NO)c2cc(S(=O)(=O)N4CC(C)CC(C)C4)ccc2C3=NOCCCNC(=O)CCCCCCNc2cccc3c2C(=O)N(C2CCC(=O)NC2=O)C3=O)C1` (stereo not drawn) [RY-3-130], the half-inhibitory concentration (IC50) with Riva amounted to 929 nM; in the assay with Pfeiffer it was 355 nM; in the assay with Granta-519 it was 530 nM.
As to `CC1CC(C)CN(S(=O)(=O)c2ccc3c(c2)C(=NO)c2cc(S(=O)(=O)N4CC(C)CC(C)C4)ccc2C3=NOCCCNC(=O)CCOCCOCCNc2cccc3c2C(=O)N(C2CCC(=O)NC2=O)C3=O)C1` (stereo not drawn) [RY-3-131], the IC50 is over 20000 nM in the assay with Riva, 1880 nM in the assay with Pfeiffer and over 20000 nM in the assay with Granta-519.
For `CC1CC(C)CN(S(=O)(=O)c2ccc3c(c2)C(=NO)c2cc(S(=O)(=O)N4CC(C)CC(C)C4)ccc2C3=NOCCCNC(=O)CCOCCOCCOCCNc2cccc3c2C(=O)N(C2CCC(=O)NC2=O)C3=O)C1` (stereo not drawn) [RY-3-132], the IC50 in the assay on Riva, in the assay with Pfeiffer and with Granta-519 was over 20000 nM in each case.
Take `C[C@@H]1C[C@H](C)CN(S(=O)(=O)c2ccc3c(c2)C(=NO)c2cc(S(=O)(=O)N4C[C@H](C)C[C@H](C)C4)ccc2C3=NO)C1` [Tegavivint, tegavivint, reference compound]: the figures for the IC50 in the assay on Riva, in the assay with Pfeiffer (Homo sapiens) and in the assay with Granta-519 (Homo sapiens) were 86 nM, 175 nM and 94 nM, respectively.
